Patent US20160296499A1, “Spiroindoline Antiparasitic Derivatives” (ZOETIS SERVICES LLC, priority 2013, published 2016)
Where two headings read alike, the source gives them in different places.

Key:
[1] = tested on: Dirofilaria immitis microfilariae; assay: Dirofilaria immitis, Microfilariae (DiMF) In Vitro Assay; settings: Dirofilaria immitis
[2] = target: T1, bovine vesicular acetylcholine transporter (VAChT) (Bos taurus, UniProt E1BK36); assay: Radioligand Binding Assay; settings: Bovine binding Ki, CHO-K1 membranes with recombinant bovine VAChT, [3H]Compound X6 0.3 nM
T1 sequence (E1BK36 1-524): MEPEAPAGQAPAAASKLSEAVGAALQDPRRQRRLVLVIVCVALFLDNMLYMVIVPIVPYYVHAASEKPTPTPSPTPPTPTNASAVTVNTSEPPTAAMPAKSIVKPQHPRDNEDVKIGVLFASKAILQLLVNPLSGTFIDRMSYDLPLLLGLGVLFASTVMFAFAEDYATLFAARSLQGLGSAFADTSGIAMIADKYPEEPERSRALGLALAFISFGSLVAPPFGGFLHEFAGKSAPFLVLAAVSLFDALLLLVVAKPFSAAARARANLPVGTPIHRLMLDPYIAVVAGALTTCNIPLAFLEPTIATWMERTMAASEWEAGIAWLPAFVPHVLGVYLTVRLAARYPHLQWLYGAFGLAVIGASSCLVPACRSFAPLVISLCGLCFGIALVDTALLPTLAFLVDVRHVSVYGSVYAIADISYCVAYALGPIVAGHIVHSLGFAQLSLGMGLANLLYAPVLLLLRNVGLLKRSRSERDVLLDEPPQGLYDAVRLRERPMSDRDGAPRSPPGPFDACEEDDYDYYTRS
Method: To measure binding affinity, CHO-K1 cells recombinantly expressing the bovine VAChT was generated as a stable cell line and subsequently used to produce membrane preparations.
Radioligand binding assays were conducted in disposable polypropylene 96-well plates. VAChT competition assays were initiated by the addition of bovine recombinant membrane homogenate (50 μg/well) in assay buffer (50 mM Tris-HCl, 120 mM NaCl, 5 mM KCl, 1 mM MgCl, and 2 mM CaCl, pH 7.4) containing [^3H]Compound X6 (0.3 nM) with or without competing ligand. The assay was allowed to equilibrate for 120 minutes at room temperature, before being filtered onto GF/C unifilter plates pre-coated in 0.3% polyethylenimine (Perkin Elmer Life and Analytical Sciences, Boston, Mass.) with a Filtermate 96 harvester (PerkinElmer Life and Analytical Sciences). Filters were washed in ice-cold 50 mM Tris-HCl, pH 7.4 buffer and then counted for radioactivity in a TopCount microplate scintillation counter after addition of 50 μL Microscint 20 (PerkinElmer). Non-specific binding was measured in the presence of 10 μM Compound X6. Apparent dissociation constants (Ki values) from the competition experiments were calculated using an iterative nonlinear regression curve-fitting program (GraphPAD Prism 6.0 Software, San Diego, Calif.) and are reported in Table 2.

[3] = tested on: Haemonchus contortus L3; assay: Haemonchus contortus, Larvae Stage 3 (HcL3) In Vitro Assay; settings: Haemonchus contortus
[4] = 72 h, read-out: Di MF, MEC, decrease in microfilariae motility by visual assessment, curve starting at 100 μM
[5] = 96 h, read-out: HcL3 MEC, Minimal Effective Concentration whereby worm motility is inhibited by approximately 70%, 37° C., tested 0.001-100 μM
[6] = 96 hours, 37° C., read-out: HcL3 MEC

| SMILES | minimal effective concentration [1, 4] [µM] | Ki [2] [nM] | minimal effective concentration [3, 5] [µM] | minimal effective concentration ([1]; 72 hours, read-out: Di MF) [µM] | minimal effective concentration [3, 6] [µM] |
| --- | --- | --- | --- | --- | --- |
| N#Cc1ccc(/C=C/CN2CCC3(CC2)CN(C(=O)NCc2ccnc(C(F)(F)F)c2)c2ccc(OC(F)(F)F)cc23)cc1 [Example 176, (E)-1′-(3-(4-cyanophenyl)allyl)-5-(trifluoromethoxy)-N-((2-(trifluoromethyl)pyridin-4-yl)methyl)spiro[indoline-3,4′-piperidine]-1-carboxamide] | 3.3 | 288 | 33 | – | – |
| O=C(NCc1ccnc(F)c1)N1CC2(CCN(C/C=C/c3ccc(Cl)cc3)CC2)c2c(Cl)cc(Cl)cc21 [Example 60, (E)-4,6-dichloro-1′-(3-(4-chlorophenyl)allyl)-N-((2-fluoropyridin-4-yl)methyl)spiro[indoline-3,4′-piperidine]-1-carboxamide] | 10 | 986 | 100 | – | – |
| O=C(NCc1ccnc(Cl)c1)N1CC2(CCN(C/C=C/c3ccc(Cl)cc3)CC2)c2cc(F)c(C(F)(F)F)cc21 [Example 126, (E)-1′-(3-(4-chlorophenyl)allyl)-N-((2-chloropyridin-4-yl)methyl)-5-fluoro-6-(trifluoromethyl)spiro[indoline-3,4′-piperidine]-1-carboxamide] | – | 33 | – | 10 | 1 |
| N#Cc1cncc(-c2ccc3c(c2)C2(CCN(C/C=C/c4ccc(Cl)cc4)CC2)CN3C(=O)NCc2ccnc(F)c2)c1 [Example 115, 1′-[(E)-3-(4-chlorophenyl)allyl]-5-(5-cyano-3-pyridyl)-N-[(2-fluoro-4-pyridyl)methyl]spiro[indoline-3,4′-piperidine]-1-carboxamide] | 7.6 | 3930 | 100 | – | – |
| N#Cc1ccc(-c2ccc3c(c2)C2(CCN(C/C=C/c4ccc(Cl)c(Cl)c4)CC2)CN3C(=O)NCc2ccnc(F)c2)cn1 [Example 116, 5-(6-cyano-3-pyridyl)-1′-[(E)-3-(3,4-dichlorophenyl)allyl]-N-[(2-fluoro-4-pyridyl)methyl]spiro[indoline-3,4′-piperidine]-1-carboxamide] | 4 | 58.5 | 5 | – | – |
| O=C(NCc1cocn1)N1CC2(CCN(C/C=C/c3ccc(Cl)c(Cl)c3)CC2)c2c1ccc1scnc21 [Example 29, (E)-1-(3-(3,4-dichlorophenyl)allyl)-N-(oxazol-4-ylmethyl)spiro[piperidine-4,8′-thiazolo[4,5-e]indole]-6′(7′H)-carboxamide] | 10 | 367 | 100 | – | – |
| O=C(NCc1ccnc(Cl)c1)N1CC2(CCN(C/C=C/c3ccc(Cl)cc3)CC2)c2cc(-c3nccs3)ccc21 [Example 81, (E)-1′-(3-(4-chlorophenyl)allyl)-N-((2-chloropyridin-4-yl)methyl)-5-(thiazol-2-yl)spiro[indoline-3,4′-piperidine]-1-carboxamide] | 7.6 | 308 | 100 | – | – |
| CC1(C)Oc2cc3c(cc2O1)C1(CCN(C/C=C/c2ccc(Cl)c(Cl)c2)CC1)CN3C(=O)NCc1ccnc(Cl)c1 [Example 7, (E)-N-((2-chloropyridin-4-yl)methyl)-1-(3-(3,4-dichlorophenyl)allyl)-2′,2′-dimethylspiro[piperidine-4,7′-[1,3]dioxolo[4,5-f]indole]-5′(6′H)-carboxamide] | – | 516 | – | 10 | 100 |
| Cc1ccc2c(c1)C1(CCN(C/C=C/c3ccc(Cl)c(Cl)c3)CC1)CN2C(=O)NCc1ccnc(Cl)c1 [Example 123, (E)-N-((2-chloropyridin-4-yl)methyl)-1′-(3-(3,4-dichlorophenyl)allyl)-5-methylspiro[indoline-3,4′-piperidine]-1-carboxamide] | – | 20.8 | – | 10.2 | 1 |
| O=C(NCc1ccnc(F)c1)N1CC2(CCN(C/C=C/c3ccc(Cl)cc3)CC2)c2cc(-c3cc[nH]c(=O)c3)ccc21 [Example 83, (E)-1′-(3-(4-chlorophenyl)allyl)-N-((2-fluoropyridin-4-yl)methyl)-5-(2-oxo-1,2-dihydropyridin-4-yl)spiro[indoline-3,4′-piperidine]-1-carboxamide] | 6.9 | 11200 | 100 | – | – |
| O=C(NCc1ccnc(F)c1)N1CC2(CCN(C/C=C/c3ccc(C(F)(F)F)cc3)CC2)c2cc(Br)ccc21 [Example 107, 5-bromo-N-[(2-fluoro-4-pyridyl)methyl]-1′-[(E)-3-[4-(trifluoromethyl)phenyl]allyl]spiro[indoline-3,4′-piperidine]-1-carboxamide] | 3.3 | 486 | 3.3 | – | – |
| Cc1noc(C)c1-c1ccc2c(c1)C1(CCN(C/C=C/c3ccc(Cl)cc3)CC1)CN2C(=O)NCc1ccnc(Cl)c1 [Example 187, (E)-1′-(3-(4-chlorophenyl)allyl)-N-((2-chloropyridin-4-yl)methyl)-5-(3,5-dimethylisoxazol-4-yl)spiro[indoline-3,4′-piperidine]-1-carboxamide] | – | 2470 | – | 3.3 | 100 |
| O=C(NCc1ccnc(Cl)c1)N1CC2(CCN(C/C=C/c3ccc(Cl)c(Cl)c3)CC2)c2c1ccc1scnc21 [Example 40, (E)-N-((2-chloropyridin-4-yl)methyl)-1-(3-(3,4-dichlorophenyl)allyl)spiro[piperidine-4,8′-thiazolo[4,5-e]indole]-6′(7′H)-carboxamide] | 5.7 | 110 | 4.8 | – | – |
| O=C(NCc1ccnc(Cl)c1)N1CC2(CCN(C/C=C/c3ccc(C(F)(F)F)cc3)CC2)c2cc(F)c(Cl)cc21 [Example 145, (E)-6-chloro-N-((2-chloropyridin-4-yl)methyl)-5-fluoro-1′-(3-(4-(trifluoromethyl)phenyl)allyl)spiro[indoline-3,4′-piperidine]-1-carboxamide] | 5.7 | 47.4 | 3.3 | – | – |
| O=C(NCc1ccnc(Cl)c1)N1CC2(CCN(C/C=C/c3ccc(Cl)cc3)CC2)c2cc3c(cc21)OCO3 [Example 6, (E)-1-(3-(4-chlorophenyl)allyl)-N-((2-chloropyridin-4-yl)methyl)spiro[piperidine-4,7′-[1,3]dioxolo[4,5-f]indole]-5′(6′H)-carboxamide] | – | 35.4 | – | 10 | 3.3 |
| O=C(NCc1cnc(Cl)s1)N1CC2(CCN(C/C=C/c3ccc(Cl)cc3)CC2)c2c(OC(F)(F)F)cccc21 [Example 95, (E)-1′-(3-(4-chlorophenyl)allyl)-N-((2-chlorothiazol-5-yl)methyl)-4-(trifluoromethoxy)spiro[indoline-3,4′-piperidine]-1-carboxamide] | 3.3 | 1010 | 100 | – | – |
| N#Cc1ccc(-c2ccc3c(c2)C2(CCN(C/C=C/c4ccc(C(F)(F)F)cc4)CC2)CN3C(=O)NCc2ccnc(Cl)c2)cn1 [Example 120, N-[(2-chloro-4-pyridyl)methyl]-5-(6-cyano-3-pyridyl)-1′-[(E)-3-[4-(trifluoromethyl)phenyl]allyl]spiro[indoline-3,4′-piperidine]-1-carboxamide] | 1.2 | 13900 | 100 | – | – |
